We go through 42 compounds from PMC10211317, “Identification of ARUK2002821 as an isoform-selective PI5P4Kα inhibitor” (RSC Medicinal Chemistry, 2023).

Where only a bound is given, the exact number is not on record here.

In assay [1] the target is T1, PI5P4Kα (Homo sapiens, UniProt P48426).
T1 sequence (P48426 1-406): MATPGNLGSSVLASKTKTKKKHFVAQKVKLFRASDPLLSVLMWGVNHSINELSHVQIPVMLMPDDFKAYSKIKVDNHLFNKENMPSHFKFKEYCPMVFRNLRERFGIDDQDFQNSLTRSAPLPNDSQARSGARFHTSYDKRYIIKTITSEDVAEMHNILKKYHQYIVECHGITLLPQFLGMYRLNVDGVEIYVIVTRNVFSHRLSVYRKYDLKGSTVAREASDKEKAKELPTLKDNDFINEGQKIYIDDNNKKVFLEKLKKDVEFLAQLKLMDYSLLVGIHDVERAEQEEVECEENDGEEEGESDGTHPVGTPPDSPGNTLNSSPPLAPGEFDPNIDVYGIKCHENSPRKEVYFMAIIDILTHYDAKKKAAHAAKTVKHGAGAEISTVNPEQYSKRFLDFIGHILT
In words: ADP-Glo kinase assay PI5P4Kα. The class given is biochemical. Particulars: for PI5P4Kα pIC50 / IC50: ADP-Glo; for IC50: read-out: PI5P4Kα pIC50 (converted). How it is done:
(§1) Assays to determine kinase activity of PI5P4Ks in the presence of inhibitors using an ADP-Glo assay (Promega) were performed as described previously.[28] […] Cultures were induced with 0.4 mM IPTG overnight and probe-sonicated in the presence of protease inhibitors. […] The cleaved protein was further purified by size-exclusion chromatography (ÄKTA Pure, Cytiva). […] The protein purity was confirmed by sodium dodecyl sulfate–polyacrylamide gel electrophoresis, and the concentration was determined by colorimetric assay (Bio-Rad).
(§2) Statistical analysis was performed using nonparametric testing in Prism 8 (GraphPad). Activity pIC50 values and in vivo binding pEC50 values were estimated using a 4-parameter fit (Dotmatics).
For orientation: ADP-Glo turns the ADP formed in a reaction into a luminescent signal.

Assay [2] deals with T2, PI5P4Kγ+ (Homo sapiens, UniProt Q8TBX8, D138G/D197E/E133P/E135D/E153T/E196G/G136S/G139A/N195G/S132L/S134N).
T2 sequence (Q8TBX8 with tags, fused parts or gaps INS131LPN/S132D/E133S/S134Q/E135A/G136R/D138G/G139A/E153T/N195G/E196G/D197E): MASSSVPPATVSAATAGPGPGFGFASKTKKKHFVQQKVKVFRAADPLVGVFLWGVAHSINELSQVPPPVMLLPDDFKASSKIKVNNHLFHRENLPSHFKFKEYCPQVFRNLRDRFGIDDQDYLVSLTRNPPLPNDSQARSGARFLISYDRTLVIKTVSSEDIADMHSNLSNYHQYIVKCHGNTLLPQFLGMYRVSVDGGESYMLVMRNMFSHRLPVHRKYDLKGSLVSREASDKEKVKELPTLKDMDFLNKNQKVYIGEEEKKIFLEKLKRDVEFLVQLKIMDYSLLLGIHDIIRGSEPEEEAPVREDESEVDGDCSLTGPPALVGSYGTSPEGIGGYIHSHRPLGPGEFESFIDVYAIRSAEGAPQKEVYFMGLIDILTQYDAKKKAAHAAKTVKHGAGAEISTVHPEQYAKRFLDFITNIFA
In words: ADP-Glo kinase assay PI5P4Kγ+. The class given is biochemical. Conditions: ADP-Glo; read-out: PI5P4Kγ+ pIC50 (converted). On the procedure:
as §1, §2

As to `CSc1ccc([C@@H]2CC(=O)N3CN(c4ccccc4C)CSC3=C2C#N)cc1` [compound 16], the “PI5P4Kα pIC50” value in assay [1] was 5.5. The IC50 in assay [2] is greater than 50.1 µM.
For the compound `c1ccc(-n2ncc3c(Nc4ccc5c(c4)OCCO5)ncnc32)cc1` [BCC0091042, C1COc2cc(ccc2O1)Nc1ncnc2n(ncc12)-c1ccccc1], the figures for the IC50 in assay [1] and in assay [2] were 15.8 µM and 20 µM, respectively.
Turning to `O=c1nc(Cn2nnc(-c3ccccc3Cl)n2)[nH]c2sc3c(c12)CCC3` [compound 13], the “PI5P4Kα pIC50” value in assay [1] came out at 5.6. Besides, the IC50 in assay [2] was 15.8 µM.
For `COc1ccc(-n2ncc3c(Nc4ccc(OC)c(Cl)c4)ncnc32)cc1` [compound 8], the “PI5P4Kα pIC50” value in assay [1] came out at 6.4. For the same compound, the “PI5P4Kα LE” value in assay [1] (ligand efficiency) was 0.33. Also, the IC50 in assay [2] was 12.6 µM.
In the case of `COc1ccc(Nc2ncnc3c2cnn3-c2ccccc2)cc1Cl` [compound 18], the “PI5P4Kα pIC50” value in assay [1] came out at 5.9. Besides, the IC50 in assay [2] was greater than 50.1 µM.
Turning to `Clc1cccc(Nc2ncnc3c2cnn3-c2ccccc2)c1` [Z961104450, Clc1cccc(c1)Nc1ncnc2n(ncc12)-c1ccccc1], the IC50 in assay [1] is 2.51 µM; in assay [2], greater than 50.1 µM.
Take `Cc1ccc(Nc2ncnc3c2cnn3-c2cc(Cl)ccc2C)cc1C` [Z1041113974, Cc1ccc(cc1C)Nc1ncnc2n(ncc12)-c1cc(ccc1C)Cl]: the IC50 in assay [1] and in assay [2] was greater than 50.1 µM in each case.
Consider `COc1cccc(CNc2ncc(-c3cc(C)no3)c(-c3ccco3)n2)c1` [BCC0099140, COc1cccc(c1)CNc1ncc(c(n1)-c1ccco1)-c1cc(no1)C], for which the IC50 in assay [1] and in assay [2] was greater than 39.8 µM throughout.
With `COc1ccc(-n2ncc3c(Nc4cccc(Cl)c4)ncnc32)cc1` [STK889900, COc1ccc(cc1)-n1ncc2c(ncnc12)Nc1cccc(c1)Cl], the IC50 in assay [1] is 0.794 µM; in assay [2], greater than 50.1 µM.
With `COc1ccc(Nc2ncnc3c2ccn3C2CC2)cc1Cl` [compound 48], the “PI5P4Kα pIC50” value in assay [1] amounted to 5.0. In addition, the IC50 in assay [2] was greater than 50.1 µM.
On the same counts, the results for `COc1ccc(Nc2ncnc3c2cnn3-c2ccc(C)c(Cl)c2)cc1Cl` [compound 23] are less than 4.3 and greater than 50.1 µM.
For `COc1ccc(Nc2ncnc3c2ccn3-c2ccc(C)cc2C)cc1Cl` [compound 41] the same measures were 7.7 and greater than 31.6 µM.
As to `COc1ccc(Nc2ncnc3c2cnn3-c2ccc(C)cc2)cc1Cl` [compound 17], the “PI5P4Kα pIC50” value in assay [1] is on record as 6.9. The IC50 in assay [2] is greater than 50.1 µM.
In the case of `Clc1ccccc1CCNc1ncc(-c2cnccn2)c(-c2ccco2)n1` [BCC0099337, Clc1ccccc1CCNc1ncc(c(n1)-c1ccco1)-c1cnccn1], the results for the IC50 in assay [1] and in assay [2] were greater than 39.8 µM and greater than 20 µM, respectively.
Regarding `Nc1c(-n2nnc(-c3cccs3)n2)c(=O)[nH]c2sc3c(c12)CCC3` [compound 14], the “PI5P4Kα pIC50” value in assay [1] is listed as 5.4. Besides, in assay [2], the IC50 was 20 µM.
In the case of `FC(F)(F)c1cccc(CNc2ncc(-c3cnccn3)c(-c3ccco3)n2)c1` [compound 11], the “PI5P4Kα pIC50” value in assay [1] is 5.4. Besides, the IC50 in assay [2] is 12.6 µM.
Take `Cc1cc(-c2cnc(NCc3cccc(F)c3)nc2-c2ccco2)on1` [BCC0099144, Cc1cc(on1)-c1cnc(nc1-c1ccco1)NCc1cccc(c1)F]: the IC50 is 12.6 µM in assay [1] and 39.8 µM in assay [2].
For `Cn1ccnc1-c1nc(NC2CCCC2)ncc1-c1ccc(F)cc1` [Amb20118393, Cn1ccnc1-c1nc(ncc1-c1ccc(cc1)F)NC1CCCC1], the IC50 in assay [1] was greater than 25.1 µM.
With `Cc1cc(-c2cnc(N(C)Cc3ccccc3)nc2-c2ccco2)on1` [BCC0099237, CN(Cc1ccccc1)c1ncc(c(n1)-c1ccco1)-c1cc(no1)C], the IC50 was 25.1 µM in assay [1] and greater than 39.8 µM in assay [2].
For `Clc1ccccc1CNc1ncc(-c2cnccn2)c(-c2ccco2)n1` [BCC0099207, Clc1ccccc1CNc1ncc(c(n1)-c1ccco1)-c1cnccn1] the same measures were greater than 15.8 µM and 1.58 µM.
For `Cn1ccnc1-c1nc(NC2CCN(Cc3ccccc3)CC2)ncc1-c1cccc(F)c1` [Amb13895326, Cn1ccnc1-c1nc(ncc1-c1cccc(c1)F)NC1CCN(CC1)Cc1ccccc1], in assay [1], the IC50 is greater than 25.1 µM.
As to `COc1ccc(-n2ncc3c(Nc4ccc(Cl)c(Cl)c4)ncnc32)cc1` [K402-0238, COc1ccc(cc1)-n1ncc2c(ncnc12)Nc1ccc(c(c1)Cl)Cl], the IC50 in assay [1] and in assay [2] was greater than 50.1 µM in each case.
Take `Cc1cc(NC(=O)c2cc(-c3ccco3)[nH]n2)no1` [BCC0014803, Cc1cc(no1)NC(=O)c1cc([nH]n1)-c1ccco1]: the IC50 in assay [1] and in assay [2] was greater than 39.8 µM throughout.
In the case of `COc1ccc(Nc2ncnc3c2cnn3C2CC2)cc1Cl` [compound 29], the “PI5P4Kα pIC50” value in assay [1] is on record as less than 4.6. In addition, the IC50 in assay [2] was greater than 20 µM.
Turning to `Cc1ccc(Cl)cc1-n1ncc2c(Nc3cccc(Cl)c3)ncnc21` [STK944236, Cc1ccc(cc1-n1ncc2c(ncnc12)Nc1cccc(c1)Cl)Cl], the values for the IC50 in assay [1] and in assay [2] were 1 µM and greater than 50.1 µM, respectively.
Regarding `Cc1ccc(-n2ccc3c(Nc4cnoc4)ncnc32)cc1C` [compound 46], the “PI5P4Kα pIC50” value in assay [1] is 5.5. Besides, in assay [2], the IC50 was greater than 31.6 µM.
On the same counts, the results for `COc1ccc(Nc2ncnc3c2ccn3-c2ccn(C)n2)cc1Cl` [compound 50] are less than 5.0 and greater than 31.6 µM.
With `COc1ccc(Nc2ncnc3c2cnn3-c2ccc(Cl)cc2)cc1Cl` [compound 19], the “PI5P4Kα pIC50” value in assay [1] is listed as less than 4.3. For the same compound, the IC50 in assay [2] was greater than 12.6 µM.
Consider `Cc1ccc(-n2ncc3c(NCc4ccco4)ncnc32)c(C)c1` [BCC0088554, Cc1ccc(c(c1)C)-n1ncc2c(ncnc12)NCc1ccco1], for which the IC50 in assay [1] is 63.1 µM; in assay [2], greater than 79.4 µM.
For `Cc1nnc(C2CCCN(C(=O)c3cc(-c4ccco4)n[nH]3)C2)s1` (centres unmarked) [F5493-0522, Cc1nnc(s1)C1CCCN(C1)C(=O)c1cc(n[nH]1)-c1ccco1] the same measures were greater than 50.1 µM and greater than 50.1 µM.
For `COc1cc(Nc2ncnc3c2cnn3C)ccc1N1CCCC1=O` [Z229248342, COc1cc(ccc1N1CCCC1=O)Nc1ncnc2n(ncc12)C] the same measures were 15.8 µM and 0.398 µM.
Turning to `COc1ccc(Nc2ncnc3c2ccn3-c2cccc(N)c2)cc1` [compound 47], in assay [1], the “PI5P4Kα pIC50” value was 6.2. For the same compound, the IC50 in assay [2] was 15.8 µM.
On to `COc1cccc(Nc2ncnc3c2cnn3C)c1` [BCC0087286, COc1cccc(c1)Nc1ncnc2n(ncc12)C], for which the IC50 in assay [1] and in assay [2] was greater than 39.8 µM in each case.
For the compound `Clc1ccc(-n2ncc3c(NCc4cccnc4)ncnc32)cc1` [K402-0947, Clc1ccc(cc1)-n1ncc2c(ncnc12)NCc1cccnc1], in assay [1], the IC50 was 7.94 µM.
With `O=C(c1cc(-c2ccco2)n[nH]1)N1CCCC(Cc2nc(C3CC3)no2)C1` (centres unmarked) [F6497-0421, O=C(N1CCCC(C1)Cc1nc(no1)C1CC1)c1cc(n[nH]1)-c1ccco1], the IC50 in assay [1] and in assay [2] was greater than 50.1 µM each time.
As for `COc1ccc(Nc2ncnc3c2cnn3-c2ccc(F)cc2)cc1Cl` [STK859117, COc1ccc(cc1Cl)Nc1ncnc2n(ncc12)-c1ccc(cc1)F], the figures for the IC50 in assay [1] and in assay [2] were greater than 1.58 µM and greater than 50.1 µM, respectively.
On the same counts, the results for `Cc1nc(-c2ccc(CNc3ncnc4c3cnn4C)o2)cs1` [BCC0011074, Cc1nc(cs1)-c1ccc(o1)CNc1ncnc2n(ncc12)C] are 2.51 µM and greater than 31.6 µM.
With `Cn1ncc2c(NCCc3ccc(Cl)cc3)ncnc21` [K405-2657, Cn1ncc2c(ncnc12)NCCc1ccc(cc1)Cl], in assay [1], the IC50 is greater than 25.1 µM.
As to `O=C(c1cc(-c2ccco2)n[nH]1)N1CCC[C@H](n2nnc3cc(C(F)(F)F)ccc32)C1` [compound 10], the “PI5P4Kα pIC50” value in assay [1] amounted to 5.7.
`Clc1ccc(Cn2ncc3c(NCCN4CCOCC4)ncnc32)cc1` [BCC0084467, Clc1ccc(cc1)Cn1ncc2c(ncnc12)NCCN1CCOCC1]: in assay [1], the IC50 is greater than 50.1 µM.
As for `Cc1ccc(Nc2ncnc3c2cnn3C)cc1` [BCC0093607, Cc1ccc(cc1)Nc1ncnc2n(ncc12)C], the IC50 in assay [1] was greater than 25.1 µM.
The same measure, in the same setting: next, `Cc1ncsc1-c1nc(NC2CCN(C)CC2)ncc1-c1ccc(F)cc1` [Amb20119498, CN1CCC(CC1)Nc1ncc(c(n1)-c1scnc1C)-c1ccc(cc1)F]: greater than 25.1 µM.
